This is an account of results in patent US8563723B2, “Arylsulfonyl pyrazoline carboxamidine derivatives as 5-HT6 antagonists” (Abbott Healthcare Products, B.V., priority 2008, dated 2013).

As a reminder, the half-life is the time in which the quantity being followed falls by half. Lower therefore signals fast loss. Broadly, the melting point is the temperature, or range, at which the solid turns liquid.

Data set [1] is described as follows: in vitro. The following applies: human, hepatocytes.
Data set [2] in a line: in vitro. Particulars: rat, hepatocytes.
Data set [3] concerns the target T1, 5-HT6 receptor (Homo sapiens, UniProt P50406). The experiment in a line: In vitro affinity for human 5-HT6 receptors ([3H]-LSD binding, CHO cell membranes). Set-up: host or cells: CHO/Gα16/mtAEQ/h5HT6-A1 cells. The following applies: read-out: 5-HT6 pKi (converted).
Experimental: In Vitro Affinity for Human 5-HT6 Receptors
Affinity for human 5-HT6 receptors was measured in a membrane preparation of CHO-cells transfected with human 5-HT6 receptors by binding studies using [^3H]-N-Methyl-Lysergic acid diethylamide ([^3H]-LSD) as ligand. […] CHO/Gα16/mtAEQ/h5HT6-A1 cells were grown in T-flasks in CHO-S-SFM II medium (Gibco BRL), supplemented with 1% dialysed FCS, 2 mM L-glutamine, Geneticin 500 μg/ml and Zeocin 200 μg/ml. […] After thawing cells were centrifuged during 3 minutes at 1500 g at 4° C. […] The assay was established so as to achieve steady state conditions and to optimize specific binding. For the 5-HT6 receptor, membranes from 5.10^5 cells were incubated with 5.0 nM [^3H]-LSD at 37° C. for 30 minutes. Nonspecific binding was determined using 10^−5 M serotonin. Assays were terminated by vacuum filtration through glass fibre filters (GF/B) which had been pretreated with 0.5% polyethyleneimine. Total and bound radioactivity was determined by liquid scintillation counting. […] Compounds were tested at a 4 log concentration range; all determinations were performed as triplicates. IC50 values were determined by non-linear regression analysis using Hill equation curve fitting. The inhibition constants (Ki-values) were calculated from the Cheng-Preushoff equation: Ki=IC50:(1+L/Kd) wherein L represents the concentration [^3H]-LSD in the assay, and Kd its affinity for the receptor. Results are expressed as pKi-values, means±SD of at least three separate experiments.
The target in data set [4] is T1, 5-HT6 receptor. Put plainly: In vitro functional activity ((ant)agonism) on human 5-HT6 receptors, CHO-human-5HT6-Aequorin assay. Type of data set: cell-based. On the set-up: host or cells: CHO AequoScreen recombinant cell line (expresses mitochondrial targeted apo-Aequorin).
Experimental: Human-5-HT6-Aequorin cells express mitochondrial targeted apo-Aequorin. Cells have to be loaded with coelanterazine, in order to reconstitute active Aequorin. […] This luminescent response is dependent on the agonist concentration. Luminescence is measured using the MicroBeta Jet (Perkin Elmer). Agonistic effects of compounds are expressed as pEC50. […] Compounds were tested at a 5 log concentration range, and 3 independent experiments were performed in duplicate.
Data set [5] concerns the target T1, 5-HT6 receptor. Particulars: 5-HT6 receptor (Sleight, 1998); cited from earlier work.
For data set [6] the following is noted: Sleight, 1998; cited from earlier work.
For data set [7] the following is noted: Rogers, 1999; cited from earlier work.
Where [8] appears, read: [3H]-LSD, membranes of CHO cells with human 5-HT6, comparison table Example 6.
[9] abbreviates: [3H]-LSD, membranes of CHO cells with human 5-HT6, main compound table.
Setting [10] is: antagonism of 10^-8 M α-methylserotonin induced luminescence, main compound table.
The mark [11] stands for this setting: antagonism of 10^-8 M α-methylserotonin induced luminescence, main compound table, read-out: 5-HT6 pA2 (converted).
Setting [12] is: antagonism of 10^-8 M α-methylserotonin induced luminescence, comparison table Example 6.

Structures are written as SMILES. Like-named read-outs stand apart in the source and are kept apart here.

T1 sequence (P50406 whole entry): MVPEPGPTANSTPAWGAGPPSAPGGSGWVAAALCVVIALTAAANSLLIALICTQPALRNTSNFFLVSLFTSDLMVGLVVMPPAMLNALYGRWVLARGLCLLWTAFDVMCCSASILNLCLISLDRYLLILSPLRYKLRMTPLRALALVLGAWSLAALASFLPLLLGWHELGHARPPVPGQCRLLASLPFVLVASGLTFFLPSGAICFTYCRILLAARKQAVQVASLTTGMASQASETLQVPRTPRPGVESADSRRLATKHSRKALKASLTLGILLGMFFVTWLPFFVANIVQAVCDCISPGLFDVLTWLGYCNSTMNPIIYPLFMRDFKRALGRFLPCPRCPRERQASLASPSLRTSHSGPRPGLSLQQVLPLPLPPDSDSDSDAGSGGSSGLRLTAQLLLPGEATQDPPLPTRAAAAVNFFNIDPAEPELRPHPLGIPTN

Turning to `CCN/C(=N\S(=O)(=O)c1ccc(N)cc1)N1CC(C)(C)C=N1` [Compound 3, 4-Amino-N-[(4,4-dimethyl-4,5-dihydro-pyrazol-1-yl)-ethylamino-methylene]-benzenesulfonamide], the half-life at 1 μg/ml is more than 1000 min in the data set “in vitro [1]” and 71 min in the data set “in vitro [2]”. Moreover, the Ki on 5-HT6 receptor [3] (setting [8]) and on 5-HT6 receptor [3] (setting [9]) was 12.6 nM throughout. For the same molecule, at 5-HT6 receptor [4] (setting [10]), the “5-HT6 pA2” value stood at 7.6.
For `CCN/C(=N\S(=O)(=O)c1ccc(N)cc1)N1CC2(C=N1)CCCC2` [Compound 4, 4-Amino-N-[(2,3-diaza-spiro[4.4]non-3-en-2-yl)-ethylamino-methylene]benzene-sulfonamide], the melting point lay in the range of 141 to 142 °C. Further, the Ki at 5-HT6 receptor [3] (setting [9]) is 10 nM. Besides, the Kb at 5-HT6 receptor [4] (5-HT6 pA2, antagonism of 10^-8 M α-methylserotonin induced luminescence, main compound table) is 5.01 nM.
Turning to `CCN/C(=N\S(=O)(=O)c1ccc(N)c(Cl)c1)N1CC(C)(C)C=N1` [Compound 13, 4-Amino-3-chloro-N-[(4,4-dimethyl-4,5-dihydro-pyrazol-1-yl)-ethylamino-methylene]-benzenesulfonamide], the figures for the half-life at 1 μg/ml in the data set “in vitro [1]” and in the data set “in vitro [2]” were 700 min and 22 min, respectively. In addition, the Ki at 5-HT6 receptor [3] (setting [8]) and on 5-HT6 receptor [3] (setting [9]) was 6.31 nM in each case. For the same molecule, at 5-HT6 receptor [4] (setting [11]), the Kb was 3.16 nM.
For the molecule `CCN/C(=N\S(=O)(=O)c1ccc(N)c(Cl)c1)N1CC2(C=N1)CCCC2` [Compound 14], the figures for the half-life at 1 μg/ml in the data set “in vitro [1]” and in “in vitro [2]” were 51 min and 17 min, respectively. For the same molecule, the Ki on 5-HT6 receptor [3] (setting [8]) and at 5-HT6 receptor [3] (setting [9]) was 1.58 nM throughout. The “5-HT6 pA2” value on 5-HT6 receptor [4] (setting [10]) was 9.0.
Turning to `CCN/C(=N\S(=O)(=O)c1ccc2c(c1)CCN2)N1CC(CC)C=N1` (centres unmarked) [Compound 16, 2,3-Dihydro-1H-indole-5-sulfonic acid ethylamino-(4-ethyl-4,5-dihydro-pyrazol-1-yl)-methyleneamide], the Ki on 5-HT6 receptor [3] (setting [9]) was 12.6 nM. The Kb at 5-HT6 receptor [4] (setting [11]) is 10 nM.
In the case of `CCN/C(=N\S(=O)(=O)c1ccc(O)cc1)N1CC(CC)C=N1` (centres unmarked) [Compound 19, N-[Ethylamino-(4-ethyl-4,5-dihydro-pyrazol-1-yl)-methylene]-4-hydroxybenzenesulfonamide], the half-life at 1 μg/ml in the data set “in vitro [1]” was found to be 354 min; in “in vitro [2]”, 19 min. Also, the Ki on 5-HT6 receptor [3] (setting [8]) and on 5-HT6 receptor [3] (setting [9]) was 3.16 nM each time. For the same molecule, at 5-HT6 receptor [4] (setting [11]), the Kb was 2.51 nM.
Consider `CCN/C(=N\S(=O)(=O)c1ccc(O)cc1)N1CC(C)(C)C=N1` [Compound 22], for which the half-life at 1 μg/ml in “in vitro [1]” is 1440 min; in “in vitro [2]”, 33 min. The Ki at 5-HT6 receptor [3] (setting [8]) and on 5-HT6 receptor [3] (setting [9]) was 12.6 nM in each case. The Kb at 5-HT6 receptor [4] (setting [11]) is 5.01 nM.
For `CCN/C(=N\S(=O)(=O)c1ccc(O)cc1)N1CC2(C=N1)CCCCC2` [Compound 24], the melting point was 140 to 142 °C.
The same measure, in the same setting: the result for `CCN/C(=N\S(=O)(=O)c1ccc(O)cc1)N1N=CCC1c1ccccc1` (centres unmarked) [Compound 25, N-[Ethylamino-(5-phenyl-4,5-dihydro-pyrazol-1-yl)-methylene]-4-hydroxybenzene-sulfonamide] reads 158 to 160 °C.
Regarding `CCN/C(=N\S(=O)(=O)c1ccc(O)c(Cl)c1)N1CC(C)(C)C=N1` [Compound 27], the Ki on 5-HT6 receptor [3] (setting [9]) is 15.8 nM. Moreover, the Kb on 5-HT6 receptor [4] (setting [11]) was 25.1 nM.
In the same order, the values of `CCN/C(=N\S(=O)(=O)c1cccc(N)c1)N1CC(CC)C=N1` (centres unmarked) [Compound 29] are 63.1 nM and 100 nM.
Take `CCN/C(=N\S(=O)(=O)c1cccc(N)c1)N1CC(C)(C)C=N1` [Compound 30, 3-Amino-N-[(4,4-dimethyl-4,5-dihydro-pyrazol-1-yl)-ethylamino-methylene]-benzenesulfonamide]: the Ki on 5-HT6 receptor [3] (setting [9]) is 251 nM. Also, the Kb at 5-HT6 receptor [4] (setting [11]) is 126 nM.
Take `CCN/C(=N\S(=O)(=O)c1cccc(Cl)c1)N1CC(C)(C)C=N1` [Compound 33 from WO 2008/034863, reference compound]: the Ki at 5-HT6 receptor [3] was 25.1 nM. The “5-HT6 pA2” value at 5-HT6 receptor [4] (setting [12]) came to 7.8.
`CCN/C(=N\S(=O)(=O)c1cccc(O)c1)N1CC(C)(C)C=N1` [Compound 36, N-[(4,4-Dimethyl-4,5-dihydro-pyrazol-1-yl)-ethylamino-methylene]-3-hydroxy-benzenesulfonamide]: the Ki on 5-HT6 receptor [3] (setting [9]) is 50.1 nM. Moreover, on 5-HT6 receptor [4] (setting [11]), the Kb was 31.6 nM.
Molecule `CCN/C(=N\S(=O)(=O)c1ccc(C(N)=O)cc1)N1CC(CC)C=N1` (centres unmarked) [Compound 43, 4-{[Ethylamino-(4-ethyl-4,5-dihydro-pyrazol-1-yl)-methylene]-sulfamoyl}-benzamide] had a melting point of 146 to 149 °C.
Consider `CCN/C(=N\S(=O)(=O)c1cccc(C(N)=O)c1)N1CC(CC)C=N1` (centres unmarked) [Compound 44, 3-{[Ethylamino-(4-ethyl-4,5-dihydro-pyrazol-1-yl)-methylene]-sulfamoyl}-benzamide], for which the melting point is 164 to 168 °C.
`CCN/C(=N\S(=O)(=O)c1cccc(Cl)c1)N1CC2(C=N1)CCCC2` [Compound 49 from WO 2008/034863, reference compound]: at 5-HT6 receptor [3] (setting [8]), the Ki was 5.01 nM. In addition, at 5-HT6 receptor [4] (setting [12]), the “5-HT6 pA2” value stood at 8.2.
Turning to `CCN/C(=N\S(=O)(=O)c1cc(O)cc(Cl)c1)N1CC2(C=N1)CCNCC2` [Compound 52], the melting point lay in the range of 112 to 114 °C. Also, the Ki at 5-HT6 receptor [3] (setting [9]) was 7.94 nM.
In the case of `CCN/C(=N\S(=O)(=O)c1cc(O)cc(Cl)c1)N1CC(CC)C=N1` (centres unmarked) [Compound 53], the melting point is 146 to 147 °C. The Ki on 5-HT6 receptor [3] (setting [9]) was 5.01 nM.
The molecule `CCN/C(=N\S(=O)(=O)c1cc(O)cc(Cl)c1)N1CC2(C=N1)CCCC2` [Compound 54] displayed a melting point of 157 to 158 °C.
Regarding `CCN/C(=N\S(=O)(=O)c1ccc2[nH]ccc2c1)N1CC(C)(C)C=N1` [Compound 57], at 5-HT6 receptor [3] (setting [9]), the Ki was 7.94 nM. Moreover, at 5-HT6 receptor [4] (setting [11]), the Kb was 2.51 nM.
For the molecule `CCN/C(=N\S(=O)(=O)c1ccc(OC)cc1)N1CC(CC)C=N1` (centres unmarked) [Compound 81 from WO 2008/034863, reference compound], the half-life at 1 μg/ml in the data set “in vitro [1]” is 68 min; in “in vitro [2]” it was 16 min. Also, the Ki at 5-HT6 receptor [3] (setting [8]) was 63.1 nM. The Kb on 5-HT6 receptor [4] (antagonism of 10^-8 M α-methylserotonin induced luminescence, comparison table Example 6, read-out: 5-HT6 pA2 (converted)) is 100 nM.
For the molecule `CNc1cc(NS(=O)(=O)c2ccc(N)cc2)nc(NC)n1` [Ro 04-6790], the Ki on 5-HT6 receptor [5] is 50 nM. Also, the pharmacokinetics result in data set [6] is on record as “poor”.
In the case of `CNc1cc(NS(=O)(=O)c2ccc(N)cc2)cc(NC)n1` [Ro 63-0563], the Ki on 5-HT6 receptor [5] was 12 nM. Moreover, the pharmacokinetics result in data set [6] was “poor”.
For the molecule `COc1ccc(NS(=O)(=O)c2sc3ccc(Cl)cc3c2C)cc1N1CCNCC1` [SB-271046], the “performance in the Morris water maze” value in data set [7] was “improved performance”.
